Data on 14 compounds can be found in patent US20240208912A1 (Mirati Therapeutics, Inc., priority 2021, published 2024).

In one assay the test system is HCT116 parental cells. The assay is described as follows: Proliferation assay (CellTiter-Glo, 10 days) in HCT116 parental cells. It counts as cell-based. The following applies: CellTiter-Glo after 10 days of treatment. The procedure: (§1) Control samples were analyzed in parallel.
Briefly, on Day 0, 250 HCT116 parental or HCT116 homozygous MTAP knockout cell were seeded in 96 well plates in McCoy's 5A supplemented with […] fetal bovine serum and pen/strep and the cells were incubated overnight at 37° C. plus 5% CO2.
The following day, cells were treated with DMSO vehicle control or a dose response of PRMT5 inhibitors and incubated at 37 C plus 5% CO2 for five days. On Day 6, the cells were trypsinized and split 1:10 into new 96-well plates with fresh medium containing the same concentration of PRMT5 inhibitor and incubated for an additional 5 days at 37° C. plus 5% CO^2.
On Day 11, the viability of the cells was measured using a CTG assay kit (CellTiter-Glo; Promega cat.no G7573) in accordance with the manufacturer's instructions. The IC50 values for each compound after 10 days of treatment were calculated using GraphPad PRISM software.

Assay [1] deals with HCT116 homozygous MTAP knockout cells. The assay can be described thus: Proliferation assay (CellTiter-Glo, 10 days) in HCT116 homozygous MTAP knockout cells. It counts as cell-based. The following applies: CellTiter-Glo after 10 days of treatment, read-out: Proliferation IC50 (nM) HCT116 MTAP_KO. The procedure, abridged: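 MTAP-null HCT116 clone made by CRISPR/Cas9 knockout of both alleles, tested beside parental cells. Cells dosed the day after seeding, split 1:10 on day 6 into fresh medium with the same compound level, and read on day 11 by CellTiter-Glo. IC50 taken after 10 days of exposure.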

In a further assay the target is T1, PRMT5/MEP50 complex (Homo sapiens, UniProt O14744).
T1 construct: purchased Reaction Biology Corporation
T1 sequence (O14744 2-637 limits assumed): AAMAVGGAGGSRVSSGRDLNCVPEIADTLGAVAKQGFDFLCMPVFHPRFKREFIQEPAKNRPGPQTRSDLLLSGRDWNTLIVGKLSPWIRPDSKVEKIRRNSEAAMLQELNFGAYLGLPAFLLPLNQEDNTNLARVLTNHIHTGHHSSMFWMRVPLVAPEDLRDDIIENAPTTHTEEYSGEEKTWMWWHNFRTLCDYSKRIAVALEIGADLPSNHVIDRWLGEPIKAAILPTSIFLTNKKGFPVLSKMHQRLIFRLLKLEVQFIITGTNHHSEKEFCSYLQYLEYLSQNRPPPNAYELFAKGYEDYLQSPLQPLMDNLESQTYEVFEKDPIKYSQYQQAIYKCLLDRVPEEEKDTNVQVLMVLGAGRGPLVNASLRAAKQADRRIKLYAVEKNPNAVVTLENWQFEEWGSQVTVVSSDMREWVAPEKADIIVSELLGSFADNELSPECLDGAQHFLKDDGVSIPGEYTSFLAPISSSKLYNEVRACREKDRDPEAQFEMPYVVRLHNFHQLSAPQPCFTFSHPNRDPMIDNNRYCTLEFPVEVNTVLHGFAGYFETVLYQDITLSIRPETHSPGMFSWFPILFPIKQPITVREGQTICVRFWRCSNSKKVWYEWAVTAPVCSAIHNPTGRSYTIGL
T1 sequence (Q9BQA1 2-342 partner limits assumed): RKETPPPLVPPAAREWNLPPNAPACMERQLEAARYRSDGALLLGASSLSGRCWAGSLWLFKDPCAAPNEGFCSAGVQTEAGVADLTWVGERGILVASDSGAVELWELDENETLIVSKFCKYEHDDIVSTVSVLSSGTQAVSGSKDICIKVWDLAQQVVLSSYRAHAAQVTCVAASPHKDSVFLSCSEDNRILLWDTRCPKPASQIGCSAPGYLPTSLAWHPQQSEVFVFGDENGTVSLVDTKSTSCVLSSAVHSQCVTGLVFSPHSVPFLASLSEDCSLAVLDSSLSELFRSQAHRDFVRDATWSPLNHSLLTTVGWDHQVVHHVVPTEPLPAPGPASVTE
The assay can be described thus: PRMT5:MEP50 HotSpot Assay (full-length histone H2A substrate, plus and minus MTA). It counts as biochemical. The following applies: IC50 + 2 μM MTA, in the presence of 2 μM MTA. The procedure, abridged:
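Radiometric HotSpot format using recombinant full-length histone H2A as substrate, run with and without MTA. Reactions were stopped and spotted onto filter paper. Tritiated H2A was quantified by scintillation counting.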

For assay [2], the system named is PRMT5-dependent Symmetric Di-methyl Arginine signal in HCT116 parental cells. The assay can be described thus: SYM11 In-Cell Western in HCT116 parental cells. It counts as cell-based. The following applies: read-out: In-cell-Western (SYM11) IC50 (nM) HCT216 parental. The procedure: as §1
Briefly, on Day 0, 2,000 HCT116 parental or HCT116 homozygous MTAP knockout cells were seeded in 96 well plates in McCoy's 5A supplemented with 10% fetal bovine serum and pen/strep and the cells were incubated overnight at 37° C. plus 5% CO2. The following day, cells were treated with DMSO vehicle control or a dose response of PRMT5 inhibitors, and incubated at 37° C. plus 5% CO^2 for four days.
After 4 days of treatment, the cells were fixed by adding 50 μl of 4% paraformaldehyde solution to each well and the cells were incubated for 20 min at room temperature. The paraformaldehyde solution was removed, 150 μl of ice-cold methanol was added and the plate was placed −20° C. for 10 minutes. The methanol was removed, 150 μl of Odyssey Blocking buffer+0.05% Tween20 was added and the plate was incubated at room temperature with shaking for one hour.
The primary SYM11 antibody solution was removed by aspiration and the wells were washed three consecutive times with phosphate buffered saline containing 0.1% Tween-20 (PBST).
The secondary antibody solution was removed by aspiration and the wells were washed three consecutive times with PBST.
The SYM11 signal and the DRAQ5 signal were quantified using a Li-Cor Odyssey machine reading at […], respectively. The SYM11/DRAQ5 ratio was used to calculate the inhibition of Symmetric Dimethyl Arginine as percent of DMSO control.

Assay [3] has as its system PRMT5-dependent Symmetric Di-methyl Arginine signal in HCT116 homozygous MTAP Knockout cells. The assay can be described thus: SYM11 In-Cell Western in HCT116 homozygous MTAP knockout cells. The format is cell-based. The procedure, abridged:
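HCT116 cells with CRISPR homozygous MTAP knockout, alongside parental cells, treated four days with PRMT5 inhibitor dose response at 37° C., 5% CO2 in McCoy's 5A with 10% FBS.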

The mark [4] stands for this setting: HCT116 parental cells, 4 days of treatment, SYM11/DRAQ5 ratio as percent of DMSO control.
[5] abbreviates: 4 days of treatment, SYM11/DRAQ5 ratio as percent of DMSO control, read-out: In-cell-Western (SYM11) IC50 (nM) HCT116 MTAP_KO.
Setting [6] is: Homo sapiens, HCT-116, 96 h, HCT116 parental cells, 4 days of treatment, SYM11/DRAQ5 ratio as percent of DMSO control.
[7] abbreviates: Homo sapiens, HCT-116, 96 h, 4 days of treatment, SYM11/DRAQ5 ratio as percent of DMSO control, read-out: In-cell-Western (SYM11) IC50 (nM) HCT116 MTAP_KO.

pIC50: −log10 of the molar value. Read-outs that look alike come from different tables or passages of the source.

Take `Cn1ncc(-c2ccc3c(=O)[nH]nc(CN)c3c2)c1-c1c(F)ccc(OC2CC2)c1C#N` (single isomer, unassigned) [Example 16-21, (P)-2-[4-[4-(aminomethyl)-1-oxo-2H-phthalazin-6-yl]-2-methyl-pyrazol-3-yl]-6-(cyclopropoxy)-3-fluoro-benzonitrile]: the IC50 with HCT116 parental cells (Homo sapiens, HCT-116, 240 h) was 4210 nM; in assay [1] it was 112 nM; in assay [2] (setting [4]), 4480 nM; in assay [3] (setting [5]) it was 65 nM. At PRMT5/MEP50 complex, the pIC50 is 6.34.

As to `Cc1c(F)c(-c2c(-c3cc(Cl)c4c(=O)[nH]nc(CN)c4c3)cnn2C)c(C#N)c2cc(Cl)cnc12` (single isomer, unassigned) [Example 16-110, (M)-6-(4-(4-(aminomethyl)-8-chloro-1-oxo-1,2-dihydrophthalazin-6-yl)-1-methyl-1H-pyrazol-5-yl)-3-chloro-7-fluoro-8-methylquinoline-5-carbonitrile], the IC50 with HCT116 parental cells (Homo sapiens, HCT-116, 240 h) is 423 nM; in assay [1] (Homo sapiens, HCT-116, 240 h), 16 nM; in assay [2] (setting [6]) it was 176 nM; in assay [3] (setting [7]), 6 nM. Besides, at PRMT5/MEP50 complex, the pIC50 was 7.72.

Take `Cc1c(F)c(-c2c(-c3ccc4c(=O)[nH]nc(CN)c4c3)cnn2C)c(C#N)c2ccccc12` (single isomer, unassigned) [Example 16-13, (P)-2-[4-[4-(aminomethyl)-1-oxo-2H-phthalazin-6-yl]-2-methyl-pyrazol-3-yl]-3-fluoro-4-methyl-naphthalene-1-carbonitrile]: the IC50 in the assay on HCT116 parental cells is 770 nM; in assay [1] it was 211 nM; in assay [2] (setting [4]), greater than 1000 nM; in assay [3] (setting [5]) it was 232 nM. Moreover, at PRMT5/MEP50 complex, the pIC50 was 6.63.

With `CCOc1cc(-c2cnn(C)c2-c2c(F)c(C)c3ncc(Cl)cc3c2C#N)cc2c(CN)n[nH]c(=O)c12` (single isomer, unassigned) [Example 16-111, (P)-6-(4-(4-(aminomethyl)-8-ethoxy-1-oxo-1,2-dihydrophthalazin-6-yl)-1-methyl-1H-pyrazol-5-yl)-3-chloro-7-fluoro-8-methylquinoline-5-carbonitrile], the IC50 in the assay on HCT116 parental cells (Homo sapiens, HCT-116, 240 h) turned out to be 57 nM; in assay [1] (Homo sapiens, HCT-116, 240 h), 21 nM; in assay [2] (setting [6]), 686 nM; in assay [3] (setting [7]) it was 344 nM. At PRMT5/MEP50 complex, the pIC50 was 6.35.

For `Cn1ncc(-c2cc([C@@H]3CCCO3)c3c(=O)[nH]nc(CN)c3c2)c1-c1sc2ccccc2c1C#N` [Example 15-3, (S)-2-(4-(4-(aminomethyl)-1-oxo-8-(THF-2-yl)-1,2-dihydrophthalazin-6-yl)-1-methyl-1H-pyrazol-5-yl)benzo[b]thiophene-3-carbonitrile], the IC50 in assay [1] (Homo sapiens, HCT-116, 240 h) came out at 22 nM; in assay [2] (setting [6]), 330 nM; in assay [3] (setting [7]), 6 nM. On PRMT5/MEP50 complex, the pIC50 was 7.79.

Turning to `Cc1c(F)c(-c2c(-c3ccc4c(=O)[nH]nc(CN)c4c3)cnn2C)c(C#N)c2ccccc12` (single isomer, unassigned) [Example 16-14, (M)-2-[4-[4-(aminomethyl)-1-oxo-2H-phthalazin-6-yl]-2-methyl-pyrazol-3-yl]-3-fluoro-4-methyl-naphthalene-1-carbonitrile], the IC50 with HCT116 parental cells was 4400 nM; in assay [1], 8 nM; in assay [2] (setting [4]), 378 nM; in assay [3] (setting [5]) it was 3 nM. The pIC50 at PRMT5/MEP50 complex was 7.91.

As for `Cn1ncc(-c2cc(C(F)F)c3c(=O)[nH]nc(CN)c3c2)c1-c1sc2ccccc2c1C#N` [Example 10-21, 2-[4-[4-(aminomethyl)-8-(difluoromethyl)-1-oxo-2H-phthalazin-6-yl]-2-methyl-pyrazol-3-yl]benzothiophene-3-carbonitrile], the IC50 in assay [1] (Homo sapiens, HCT-116, 240 h) is 35 nM; in assay [2] (setting [6]), greater than 1000 nM; in assay [3] (setting [7]), 35 nM. On PRMT5/MEP50 complex, the pIC50 is 8.39.

Regarding `Cc1cc(-c2cnn(C)c2-c2sc3ccccc3c2C#N)cc2c(CN)n[nH]c(=O)c12` [Example 10-23, 2-[4-[4-(aminomethyl)-8-methyl-1-oxo-2H-phthalazin-6-yl]-2-methyl-pyrazol-3-yl]benzo-thiophene-3-carbonitrile], the IC50 is 30 nM in assay [1] (Homo sapiens, HCT-116, 240 h); greater than 1000 nM in assay [2] (setting [6]); 15 nM in assay [3] (setting [7]). For the same compound, on PRMT5/MEP50 complex, the negative-log IC50 (pIC50) is 6.90.

For the compound `Cn1ncc(-c2cc([C@H]3CCCO3)c3c(=O)[nH]nc(CN)c3c2)c1-c1sc2ccccc2c1C#N` [Example 15-4, (R)-2-(4-(4-(aminomethyl)-1-oxo-8-(THF-2-yl)-1,2-dihydrophthalazin-6-yl)-1-methyl-1H-pyrazol-5-yl)benzo[b]thiophene-3-carbonitrile], the IC50 in assay [1] (Homo sapiens, HCT-116, 240 h) amounted to 1110 nM; in assay [2] (setting [6]), 551 nM; in assay [3] (setting [7]) it was 551 nM. Moreover, on PRMT5/MEP50 complex, the pIC50 is 6.58.

Consider `N#Cc1c(OC2CC2)cc(Cl)c(F)c1-c1c(-c2ccc3c(=O)[nH]nc(CN)c3c2)cnn1C(F)F` (atropisomer, axis not shown; (M)) [Example 16-106, (M)-2-(4-(4-(aminomethyl)-1-oxo-1,2-dihydrophthalazin-6-yl)-1-(difluoromethyl)-1H-pyrazol-5-yl)-4-chloro-6-cyclopropoxy-3-fluorobenzonitrile], for which the IC50 in the assay with HCT116 parental cells (Homo sapiens, HCT-116, 240 h) came to 1950 nM; in assay [1] (Homo sapiens, HCT-116, 240 h), 11 nM.

Take `Cn1ncc(-c2ccc3c(=O)[nH]nc(CN)c3c2)c1-c1c(F)c(Cl)cc(OC2CC2)c1C#N` [Example 4-230, 2-(4-(4-(aminomethyl)-1-oxo-1,2-dihydrophthalazin-6-yl)-1-methyl-1H-pyrazol-5-yl)-4-chloro-6-cyclopropoxy-3-fluorobenzonitrile]: the IC50 in assay [2] (Homo sapiens, HCT-116, 96 h) is greater than 1000 nM; in assay [3] (read-out: In-cell-Western (SYM11) IC50 (nM) HCT116 MTAP_KO, 4 days of treatment, SYM11/DRAQ5 ratio as percent of DMSO control) it was 6 nM.

Consider `COCc1cc(-c2cnn(C)c2-c2sc3ccccc3c2C#N)cc2c(CN)n[nH]c(=O)c12` [Example 15-5, 2-[4-[4-(aminomethyl)-8-(methoxymethyl)-1-oxo-2H-phthalazin-6-yl]-2-methyl-pyrazol-3-yl]benzothiophene-3-carbonitrile], for which the IC50 in assay [1] (Homo sapiens, HCT-116, 240 h) turned out to be 23 nM; in assay [2] (setting [6]), 595 nM; in assay [3] (setting [7]), 5 nM.

`CCOc1cc(-c2cnn(C)c2-c2c(F)c(C)c3cc(Cl)cnc3c2C#N)cc2c(CN)n[nH]c(=O)c12` (single isomer, unassigned) [Example 16-100, (M)-7-(4-(4-(aminomethyl)-8-ethoxy-1-oxo-1,2-dihydrophthalazin-6-yl)-1-methyl-1H-pyrazol-5-yl)-3-chloro-6-fluoro-5-methylquinoline-8-carbonitrile]: the IC50 with HCT116 parental cells (Homo sapiens, HCT-116, 240 h) was greater than 10000 nM. At PRMT5/MEP50 complex, the pIC50 was 5.97.

As to `Cn1ncc(-c2ccc3c(=O)[nH]nc(CN)c3c2)c1-c1c(F)cc2ccccc2c1C#N` (single isomer, unassigned) [Example 16-1], the values for the IC50 (in the assay with HCT116 parental cells; in assay [2] (setting [4])) were 757 nM and 316 nM, respectively. The pIC50 on PRMT5/MEP50 complex was 7.42.
